Experimental data: patent US4536592A, “2-Substituted prostaglandins” (G. D. Searle & Co., priority 1984, dated 1985)

Experiment: Diarrheogenic activity test (rat, intragastric, all or none diarrhea assessment)
Assay type: in vivo, Charles River rats
Settings: doses 100 to 3000 microgram/kg
Procedure: Diarrhea is an undesirable side effect commonly associated with prostaglandins.
Groups of six adult male Charles River rats, weight range 180 to 200 grams are fasted for 24 hours prior to administering the test substance. The prostaglandin to be tested is administered intragastrically in iso-osmotic phosphate buffer at a volume of 10 ml/kg at doses ranging from 100 to 3000 microgram/kg. Control animals receive only the vehicle. The rats are placed in individual wire mesh cages and the trays lined with brown paper. Diarrhea is assessed at hourly intervals on an all or none basis for up to eight hours after administration of the prostaglandin. Diarrhea is defined as any loose or watery stool. ED50 value is assessed for each hourly diarrheogenic response.

CCCCC(C)(O)C/C=C/[C@H]1[C@H](O)CC(=O)[C@@H]1CCCCCC(C)C(=O)OC (relative stereo) [Compound II]
Rat 8 hour Diarrheogenic ED50: > 3.2 mg/kg

CCCCC(C)(O)C/C=C/[C@H]1[C@H](O)CC(=O)[C@@H]1CCCCCCC(=O)OC (relative stereo) [Compound I]
TD50 at 8 h (in vivo, po, read-out: Rat 8 hour Diarrheogenic ED50): 0.366 mg/kg
